Consider 1 molecule from patent publication EP0504807B1, “Use of bis-(p-hydroxyphenylthio)methane derivatives to inhibit progressive development of insulin-dependent diabetes mellitus” (MERRELL PHARMACEUTICALS INC., priority 1991, dated 1992).

For assay [1], the system named is Female NOD mice. As to the kind of experiment: Prevention of the progressive development of IDDM in the NOD mouse (incidence of diabetes by urine glucose and plasma glucose). It is filed as in vivo. An excerpt:
The non-obese diabetic (NOD) mouse has a genetic predisposition to developing IDDM, particularly among the females. Diabetes begins to appear at 12-14 weeks of age and by 30-36 weeks of age about 75-85% of female NOD's will have developed IDDM. As such, the NOD mouse provides a standard experimental model for IDDM in man which is well known and appreciated by those skilled in the art [see Lampeter, et al: Diabetologia 32, 703 (1989)]. The effect of experimental agents on the NOD mouse can thus be studied to determine whether these agents are active in inhibiting the development of diabetes.
Female NOD mice were maintained on standard laboratory rodent feed containing either 0% (Control Group) or 1% bis(3,5-di-tertiary-butyl-4-hydroxyphenylthio)methane (Treated Group) as an admixture. The mice were started on these diets at 4 weeks of age and continued until they were 24 weeks old. Each mouse was tested for diabetes at 8, 12, 14, 16, 18, 20, 22 and 24 weeks of age. Diabetic mice were detected by a positive urine glucose measurement and were confirmed by a plasma glucose level greater than 300 mg/dL. Urine glucose was determined using Diastix™ reagent strips for urinalysis (Miles Inc., Diagnostics Division, Elkhart, IN) and plasma glucose using Glucose (GDH Endpoint) Reagent™ (Seradyn, Inc., Indianapolis, IN).
Mice were counted as diabetic if a positive urine glucose and plasma glucose greater than 300 mg/dL were determined on 3 consecutive measurements. If mice were determined to be diabetic for 1 or 2 consecutive measurements and then died with physical indications of IDDM such as severe weight loss, these mice were also counted as diabetic.
At 24 weeks of age, 30 of 61 mice in the Control Group (49%) had become diabetic compared to 2 of 51 mice in the Treated Group (4%).
The treated, nondiabetic mice (N=38) not sacrificed at 24 weeks of age were switched to control diet and monitored, along with the 21 remaining controls, for 24 more weeks. During this period, 13 of 21 (62%) controls and 13 of 38 (34%) previously treated mice developed diabetes (p=0.04). Combining the two 24 week study periods, the percentage of mice that developed diabetes among the controls was 81% (51% of the controls were nondiabetic after 24 weeks of study and 38% of these were still nondiabetic after 24 more weeks for an overall total of 19% nondiabetic control animals). Among the group treated for 24 weeks the percentage of mice that developed diabetes after 48 weeks of study was 37% (96% were nondiabetic after 24 weeks and 66% of these were still nondiabetic 24 weeks after stopping treatment).

For assay [2], the system named is Female NOD mice. Nature of the assay: Pancreatic histopathology of NOD mice at 24 weeks of age (hematoxylin and eosin, immunoperoxidase for insulin). The format is in vivo, NOD mouse. To be noted: 1% in feed. An excerpt: At 24 weeks of age, randomly selected control (N=10) and treated (N=10) nondiabetic mice and all surviving diabetic control (N=15) and treated (N=1) mice were sacrificed. Pancreata were collected and stored in formalin, processed, embedded, and sectioned by standard histological methods. Sections stained with hemotoxylin and eosin or by immunoperoxidase for insulin (as a marker for the presence of β-cells) were examined light microscopically. […]

[3] abbreviates: Clinical Status Diabetic, 1 mouse.
Setting [4] is: Clinical Status Nondiabetic, 10 mice.

For the molecule `CC(C)(C)c1cc(SCSc2cc(C(C)(C)C)c(O)c(C(C)(C)C)c2)cc(C(C)(C)C)c1O` [Bis(3,5-di-tertiary-butyl-4-hydroxyphenylthio)methane], in the assay with Female NOD mice [1] (after 48 weeks of study, group treated for 24 weeks, two 24 week periods combined, controls 81%), the “percentage of mice that developed diabetes” value worked out at 37%. In addition, the treated mice nondiabetic with Female NOD mice [1] (at 24 weeks of age / after 24 weeks of study, 1% in feed, controls 51%) is 96%. For the same molecule, the “mice that had become diabetic” value in the assay with Female NOD mice [1] (at 24 weeks of age, 1% in feed as an admixture from 4 to 24 weeks of age, Control Group 30 of 61) is reported as 2 of 51. Moreover, in the assay on Female NOD mice [1] (at 24 weeks of age, 1% in feed from 4 to 24 weeks of age, Control Group 49%), the “mice that had become diabetic (percentage)” value worked out at 4%. In addition, the “still nondiabetic 24 weeks after stopping treatment” value in the assay on Female NOD mice [1] (of the mice nondiabetic after 24 weeks of treatment, controls 38%) is recorded as 66%. In addition, the “previously treated mice that developed diabetes” value with Female NOD mice [1] (treated nondiabetic mice switched to control diet at 24 weeks of age, monitored 24 more weeks, controls 13 of 21, p=0.04) was 13 of 38. Moreover, the “previously treated mice that developed diabetes (percentage)” value with Female NOD mice [1] (treated nondiabetic mice switched to control diet at 24 weeks of age, monitored 24 more weeks, controls 62%, p=0.04) is reported as 34%. Also, in the assay with Female NOD mice [2] (setting [3]), the Atrophy was 1 number of mice, the Insulitis is on record as 1 number of mice and the “β-Cells Present” value was 1 number of mice. Further, in the assay with Female NOD mice [2] (setting [4]), the Atrophy is reported as 2 number of mice and the Insulitis was 9 number of mice.
